Among the data in PubChem BioAssay (NCI) are GI50 and TGI values, retold here.

Test systems include HCC-2998 colon; U251 CNS; HCT-116 colon; LOX IMVI melanoma; SN12C renal; HCT-15 colon; TK-10 renal; OVCAR-3 ovarian; UO-31 renal; NCI-H226 lung.
Assay in all cases: NCI-60 cell line screen, 48 h

Each structure is given as a SMILES string.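 Step 1: Grow cells in 96-well plates. Step 2: Expose to compound for 48 hours at 5 concentrations. Step 3: Interpolate endpoints linearly; if unreached, use highest concentration. GI50: concentration for 50% inhibition of growth. TGI: total growth inhibition.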 Bounds are passed on as bounds.

Turning to `CC(=O)O.CC(=O)O.CC(=O)O.CC(=O)O.[Rh].[Rh]`, the GI50 in the experiment on HCC-2998 colon was 24 µM; with U251 CNS, 25.2 µM; with HCT-116 colon, 24.1 µM; in the experiment with LOX IMVI melanoma, 17.2 µM; in the experiment with SN12C renal, 40.3 µM; in the experiment on HCT-15 colon, 28.5 µM. For the same compound, the GI50 in the experiment with TK-10 renal was 18.3 µM; in the experiment with OVCAR-3 ovarian, 26.1 µM; with UO-31 renal it was 20.6 µM; in the experiment with NCI-H226 lung it was 22 µM. Further, the TGI is 56.7 µM with HCC-2998 colon; 75.3 µM in the experiment with U251 CNS; 94.1 µM in the experiment on HCT-116 colon; 61.9 µM in the experiment with LOX IMVI melanoma; greater than 100 µM with SN12C renal; 83.9 µM in the experiment with HCT-15 colon. Also, the TGI in the experiment with TK-10 renal was 56.4 µM; in the experiment on OVCAR-3 ovarian, greater than 100 µM; in the experiment with UO-31 renal, 59 µM; in the experiment with NCI-H226 lung, 99.2 µM.
`COc1cc2c(c(OC)c1OC)-c1c(cc3c(c1OC)OCO3)CC(C)C(C)(O)C2OC(=O)c1ccccc1` (stereo not given): the TGI with HCC-2998 colon, with U251 CNS, in the experiment on HCT-116 colon, in the experiment with LOX IMVI melanoma, in the experiment on SN12C renal and in the experiment with HCT-15 colon was greater than 100 µM throughout. Besides, the TGI was greater than 100 µM in the experiment with TK-10 renal, greater than 100 µM in the experiment with OVCAR-3 ovarian, 87.3 µM in the experiment with UO-31 renal and greater than 100 µM in the experiment with NCI-H226 lung.
As for `O=C(NCC(=O)N1CCOC1=O)OCc1ccccc1`, the TGI with HCC-2998 colon, in the experiment on U251 CNS, with HCT-116 colon, with LOX IMVI melanoma, in the experiment with SN12C renal and with HCT-15 colon was greater than 100 µM each time. Moreover, the TGI in the experiment on TK-10 renal, in the experiment with OVCAR-3 ovarian, in the experiment on UO-31 renal and with NCI-H226 lung was greater than 100 µM in each case.
Regarding `Cc1ccc(NC(=O)CC2SC(N)=NC2=O)cc1C` (stereo not given), the TGI in the experiment with HCC-2998 colon, with U251 CNS, with HCT-116 colon, with LOX IMVI melanoma, with SN12C renal and in the experiment on HCT-15 colon was greater than 100 µM throughout. The TGI in the experiment with TK-10 renal, in the experiment on OVCAR-3 ovarian, in the experiment on UO-31 renal and with NCI-H226 lung was greater than 100 µM in each case.
Turning to `O=C1/C(=C/c2cccc(Br)c2)COc2ccc(O)c(O)c21`, the GI50 in the experiment on HCC-2998 colon was 1.67 µM; in the experiment on U251 CNS it was 1.1 µM; in the experiment on HCT-116 colon, 1.08 µM; in the experiment on LOX IMVI melanoma, 0.658 µM; in the experiment on SN12C renal it was 1.2 µM; in the experiment on HCT-15 colon, 0.866 µM. In addition, the GI50 with TK-10 renal was 1.7 µM; in the experiment with OVCAR-3 ovarian, 0.675 µM; in the experiment with UO-31 renal, 0.958 µM; in the experiment on NCI-H226 lung it was 2.4 µM. Moreover, the TGI with HCC-2998 colon was 3.1 µM; with U251 CNS, 2.29 µM; with HCT-116 colon, 2.47 µM; in the experiment with LOX IMVI melanoma it was 2.04 µM; in the experiment on SN12C renal, 3.04 µM; with HCT-15 colon it was 3.88 µM. Besides, the TGI in the experiment with TK-10 renal worked out at 3.1 µM; with OVCAR-3 ovarian it was 2.07 µM; in the experiment with UO-31 renal, 2.14 µM; in the experiment on NCI-H226 lung, 6.81 µM.
`CCN(CC)CCCC(C)Nc1c(-c2ccccc2)cnc2cc(Cl)ccc12` (stereo not given): the GI50 was 2.34 µM with HCC-2998 colon; 6.84 µM with U251 CNS; 3.72 µM with HCT-116 colon; 2.2 µM in the experiment with LOX IMVI melanoma; 8.9 µM in the experiment with SN12C renal; 3.62 µM with HCT-15 colon. Moreover, the GI50 is 6.93 µM in the experiment on TK-10 renal, 12.5 µM in the experiment on OVCAR-3 ovarian, 1.12 µM with UO-31 renal and 15.7 µM with NCI-H226 lung. Further, the TGI with HCC-2998 colon was 5.62 µM; in the experiment with U251 CNS it was 20.5 µM; in the experiment on HCT-116 colon, 15.2 µM; with LOX IMVI melanoma it was 5.84 µM; with SN12C renal it was 36.5 µM; in the experiment on HCT-15 colon, 13.6 µM. Further, the TGI was determined as 17.5 µM in the experiment on TK-10 renal, 26.5 µM in the experiment with OVCAR-3 ovarian, 8.83 µM in the experiment on UO-31 renal and 31.6 µM in the experiment on NCI-H226 lung.
Take `Cc1cc(NC(=O)c2cnc(N3CCN(CCOCCOCCOCCOCCC(=O)N[C@H](C(=O)N4C[C@H](O)C[C@H]4C(=O)N[C@@H](C)c4ccc(-c5scnc5C)cc4)C(C)(C)C)CC3)cn2)c2ncccc2c1`: the GI50 in the experiment with HCC-2998 colon is 1.75 µM; in the experiment on U251 CNS, 2.74 µM; with HCT-116 colon it was 1.79 µM; in the experiment with LOX IMVI melanoma, 1.84 µM; with SN12C renal it was 2.52 µM; in the experiment with HCT-15 colon, 6.39 µM. The GI50 is 10.7 µM in the experiment on TK-10 renal, 2.13 µM with OVCAR-3 ovarian, 12.7 µM with UO-31 renal and 28.7 µM in the experiment with NCI-H226 lung. The TGI was 3.25 µM in the experiment on HCC-2998 colon; 7.92 µM in the experiment on U251 CNS; 3.38 µM in the experiment on HCT-116 colon; 3.39 µM in the experiment with LOX IMVI melanoma; 7.64 µM in the experiment with SN12C renal; greater than 100 µM in the experiment with HCT-15 colon. Also, the TGI in the experiment with TK-10 renal was 53.4 µM; in the experiment on OVCAR-3 ovarian, 4.45 µM; with UO-31 renal, greater than 100 µM; in the experiment with NCI-H226 lung, greater than 100 µM.
For the compound `O=C(O)COc1ccc(C(=O)/C(SS/C(C(=O)c2ccc(OCC(=O)O)c(Cl)c2Cl)=C2\C=C(c3ccc(Br)cc3)SS2)=C2/C=C(c3ccc(Br)cc3)SS2)c(Cl)c1Cl`, the TGI in the experiment on HCC-2998 colon was greater than 42.8 µM; with U251 CNS, 28.2 µM; in the experiment with HCT-116 colon, 22.1 µM; with LOX IMVI melanoma, 13.7 µM; with SN12C renal, greater than 100 µM; in the experiment with HCT-15 colon, greater than 40.9 µM. Moreover, the TGI is greater than 100 µM in the experiment with TK-10 renal, 21.7 µM in the experiment on OVCAR-3 ovarian, 20.2 µM in the experiment with UO-31 renal and 42.1 µM with NCI-H226 lung.
